Results on 41 molecules are retold here after PMC12527977, “Discovery of a novel tetrapeptide as glucose homeostasis modulator with bifunctionalities of targeting DPP‐IV and microbiota” (iMeta, 2025).

Series [1] addresses T1, DPP-IV (Homo sapiens, UniProt P27487). Nature of the series: DPP-IV inhibitory activity of peptides (DPP-IV-Glo Protease Assay Kit). The format is biochemical. Set-up: purchased QiZheng Biotech (Shanghai, China) IBDPP0901. To be noted: for DPP-IV inhibitory activity: DPP-IV-Glo Protease Assay Kit, control = 0, in % (unit assumed).
Target sequence in this assay (P27487 whole entry): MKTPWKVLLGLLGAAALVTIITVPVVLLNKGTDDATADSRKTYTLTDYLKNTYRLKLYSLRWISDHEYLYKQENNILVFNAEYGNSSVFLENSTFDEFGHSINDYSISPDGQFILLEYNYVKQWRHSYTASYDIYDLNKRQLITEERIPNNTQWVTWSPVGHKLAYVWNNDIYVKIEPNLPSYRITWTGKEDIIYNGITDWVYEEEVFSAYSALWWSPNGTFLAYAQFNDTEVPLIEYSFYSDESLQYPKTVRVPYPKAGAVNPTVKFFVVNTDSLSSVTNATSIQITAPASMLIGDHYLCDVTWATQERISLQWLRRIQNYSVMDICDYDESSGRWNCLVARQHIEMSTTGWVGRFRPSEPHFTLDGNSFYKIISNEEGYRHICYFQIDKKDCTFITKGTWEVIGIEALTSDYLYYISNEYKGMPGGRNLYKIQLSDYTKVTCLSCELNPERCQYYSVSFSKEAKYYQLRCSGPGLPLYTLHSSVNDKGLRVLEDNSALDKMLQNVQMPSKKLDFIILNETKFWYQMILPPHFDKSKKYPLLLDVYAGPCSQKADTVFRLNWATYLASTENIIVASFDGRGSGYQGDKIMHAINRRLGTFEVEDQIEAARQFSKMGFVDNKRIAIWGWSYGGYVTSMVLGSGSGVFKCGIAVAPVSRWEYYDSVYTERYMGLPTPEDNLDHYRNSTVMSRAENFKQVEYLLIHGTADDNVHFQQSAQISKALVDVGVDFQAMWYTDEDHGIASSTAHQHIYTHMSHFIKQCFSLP
Series [2] is described as follows: Simulated digestive stability of peptides (pepsase then trypsase). The format is in vitro ADME, porcine. To be noted: pig, relative to basal 100, sheet S2H; for remaining at 4 h, 5 mg/mL: pH 7, simulated digestion, after pepsase then trypsase, read-out: Peptide remaining, Trypsase; for remaining at 2 h, 5 mg/mL: porcine pepsase (simulated gastric digestion), pH 3, simulated digestion, after porcine pepsase, read-out: Peptide remaining, Pepsase. The procedure: The in vitro digestibility of the peptides was determined according to the method described by Ohanenye et al. with some modifications. Briefly, 5.0 mg/mL peptides were mixed with 5000 U/mL porcine pepsase (pH 3.0). The mixture was incubated with continuous shaking in a water bath at 37 ℃ for 2 h. Then, the mixture was adjusted to pH 7.0, and a final concentration of 100 U/mL trypsase was added, followed by continuous shaking at 37 ℃ for another 2 h. After digestion, the enzyme was inactivated, and the mixture was incubated in a water bath (100 ℃) for 20 min. Subsequently, the mixture was centrifuged at 6000 rpm for 20 min, after which the supernatants were collected for further analysis. The concentrations of peptides in the digestions and TPH were determined via AB SCIEX QTrap 6600+ (AB Sciex, Framingham, Massachusetts).

For series [3], the target named is T1, DPP-IV. The series is described as follows: Surface plasmon resonance (Biacore 8K, CM5 chip, 25 °C). Format: binding. Set-up: purchased QiZheng Biotech (Shanghai, China) IBDPP0901.
For series [4], the target named is dipeptidyl peptidase IV (UniProt P27487).
The mark [5] stands for this setting: SPR, Table S3, read-out: KD values.

Like-named read-outs stand apart in the source and are kept apart here. Where a SMILES comes first, the peptide text is derived from it. Where no end group is shown, it is not given here.

Chain of dipeptidyl peptidase IV (P27487 41-765): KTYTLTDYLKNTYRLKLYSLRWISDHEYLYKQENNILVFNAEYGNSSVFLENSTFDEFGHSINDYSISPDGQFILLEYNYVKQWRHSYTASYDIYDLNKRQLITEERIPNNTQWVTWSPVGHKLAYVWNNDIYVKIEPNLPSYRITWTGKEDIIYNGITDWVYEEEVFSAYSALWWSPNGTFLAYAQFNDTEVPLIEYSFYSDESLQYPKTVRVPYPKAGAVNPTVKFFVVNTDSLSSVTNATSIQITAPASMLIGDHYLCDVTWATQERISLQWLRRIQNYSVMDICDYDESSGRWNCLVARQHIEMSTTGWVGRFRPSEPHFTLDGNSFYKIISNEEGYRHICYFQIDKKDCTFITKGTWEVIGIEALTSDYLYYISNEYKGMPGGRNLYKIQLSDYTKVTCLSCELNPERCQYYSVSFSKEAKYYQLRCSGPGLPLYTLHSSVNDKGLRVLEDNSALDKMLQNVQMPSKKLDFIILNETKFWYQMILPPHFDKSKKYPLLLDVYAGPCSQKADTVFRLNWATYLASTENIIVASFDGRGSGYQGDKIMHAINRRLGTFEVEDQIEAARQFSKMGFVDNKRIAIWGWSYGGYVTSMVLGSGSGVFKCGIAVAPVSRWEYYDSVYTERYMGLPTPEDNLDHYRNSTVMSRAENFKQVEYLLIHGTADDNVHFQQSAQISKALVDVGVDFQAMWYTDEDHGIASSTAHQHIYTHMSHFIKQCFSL

What is called IC50 is the point on the concentration scale where inhibition reaches its midpoint. For the molecule `CC(C)C[C@H](NC(=O)[C@@H](N)Cc1ccccc1)C(=O)N[C@@H](CCC(N)=O)C(=O)O` [FLQ] (H-Phe-Leu-Gln-OH), the DPP-IV inhibitory activity is 25.2277 in series [1] (replicate 1, sheet S2F); 32.7776 in series [1] (replicate 2, sheet S2F); 32.9911 in series [1] (replicate 3, sheet S2F). The IC50 in series [1] (Table S3, read-out: IC50) was 4130 µM.
In the same order, the values of `CC(C)C[C@H](NC(=O)[C@H](CCC(N)=O)NC(=O)[C@@H](N)Cc1ccccc1)C(=O)O` [FQL] (H-Phe-Gln-Leu-OH) are 25.4694, 22.9016, 15.9024 and 970 µM.
Usually fraction remaining stands for the share of the starting amount still present when the sample was taken. Broadly, the Kd is the concentration at which binding is half-saturated. Take `CC(C)C[C@H](NC(=O)[C@@H](N)CC(C)C)C(=O)N[C@@H](Cc1ccc(O)cc1)C(=O)O` [LLY] (H-Leu-Leu-Tyr-OH): the fraction remaining at 4 h, 5 mg/mL in series [2] (replicate 1) was 0.95%; in series [2] (replicate 2), 0.78%; in series [2] (replicate 3), 0.81%. The figures for the amount remaining at 2 h, 5 mg/mL in series [2] (replicate 1), in series [2] (replicate 2) and in series [2] (replicate 3) were 1.24%, 0.79% and 0.98%, respectively. The DPP-IV inhibitory activity came to 32.8224 in series [1] (replicate 1, sheet S2F); 33.3933 in series [1] (replicate 2, sheet S2F); 36.9146 in series [1] (replicate 3, sheet S2F). Further, the IC50 in series [1] (Table S3, read-out: IC50) was found to be 830 µM. Besides, the Kd in series [3] (setting [5]) was determined as 5.23 µM.
Consider `CC(C)C[C@H](N)C(=O)N[C@@H](CC(N)=O)C(=O)N[C@@H](C)C(=O)N1CCC[C@H]1C(=O)O` [LNAP] (H-LNAP-OH), for which the DPP-IV inhibitory activity in series [1] (replicate 1, sheet S2F) is recorded as 13.9411; in series [1] (replicate 2, sheet S2F) it was 16.0533; in series [1] (replicate 3, sheet S2F) it was 12.0865. Besides, the IC50 in series [1] (Table S3, read-out: IC50) came out at 590 µM.
Taken in the same sequence, the figures for `N[C@@H](Cc1c[nH]c2ccccc12)C(=O)N[C@@H](CC(=O)O)C(=O)N[C@@H](CO)C(=O)N[C@@H](Cc1ccc(O)cc1)C(=O)O` [WDSY] (H-WDSY-OH) were 82.2499, 85.4257, 81.38 and 630 µM.
In the case of `CC(C)C[C@H](NC(=O)[C@@H](N)Cc1c[nH]c2ccccc12)C(=O)N[C@@H](CCC(=O)O)C(=O)O` [WLE] (H-Trp-Leu-Glu-OH), the DPP-IV inhibitory activity in series [1] (replicate 1, sheet S2F) amounted to 21.3239; in series [1] (replicate 2, sheet S2F), 16.4075; in series [1] (replicate 3, sheet S2F), 17.3019. The half-maximal inhibitory concentration (IC50) in series [1] (Table S3, read-out: IC50) was 2400 µM.
On to `CC(C)C[C@H](NC(=O)[C@H](CC(N)=O)NC(=O)[C@@H](N)Cc1ccc(O)cc1)C(=O)O` [YNL] (H-Tyr-Asn-Leu-OH), for which the DPP-IV inhibitory activity in series [1] (replicate 1, […]) turned out to be 24.2295; in series [1] (replicate 2, […]) it was 23.675; in series [1] (replicate 3, […]), 21.7871. For the same molecule, the IC50 in series [1] (Table S3, read-out: IC50) is 140 µM.
Take `CC(C)C[C@H](NC(=O)[C@H](CCC(N)=O)NC(=O)[C@@H](N)Cc1ccc(O)cc1)C(=O)O` [YQL] (H-Tyr-Gln-Leu-OH): the DPP-IV inhibitory activity is given as 20.7988 in series [1] (replicate 1, […]); 21.5571 in series [1] (replicate 2, […]); 29.5286 in series [1] (replicate 3, […]). Moreover, the IC50 in series [1] (Table S3, read-out: IC50) turned out to be 280 µM.
Consider `C[C@@H](O)[C@H](NC(=O)[C@@H](N)Cc1ccc(O)cc1)C(=O)NCC(=O)N[C@@H](CC(=O)O)C(=O)O` [YTGD] (H-YTGD-OH), for which the DPP-IV inhibitory activity in series [1] (replicate 1, sheet S2F) worked out at 20.1405; in series [1] (replicate 2, sheet S2F), 15.5931; in series [1] (replicate 3, sheet S2F), 21.6532. The IC50 in series [1] (Table S3, read-out: IC50) was 320 µM. Moreover, in series [3] (setting [5]), the dissociation constant Kd was 100 µM.
FDGEL [FDGEL] yielded an IC50 in series [1] of 45100 µM. Also, the DPP-IV inhibitory activity in series [1] (replicate 1, […]) came to 28.637; in series [1] (replicate 2, […]), 26.7775; in series [1] (replicate 3, […]), 19.1292.
In the case of FLQ (peptide), the IC50 of inhibition of DPP-IV activity in vitro in series [4] was 4130 µM.
Molecule FNPRG [FNPRG] registered a half-maximal inhibitory concentration (IC50) in series [1] of 40500 µM. Also, the DPP-IV inhibitory activity amounted to 47.4625 in series [1] (replicate 1, […]); 43.5702 in series [1] (replicate 2, […]); 43.4293 in series [1] (replicate 3, […]).
Consider FNVDSE [FNVDSE], for which, in series [1], the IC50 was determined as 84000 µM. The DPP-IV inhibitory activity in series [1] (replicate 1, […]) is recorded as 14.7737; in series [1] (replicate 2, […]) it was 13.6123; in series [1] (replicate 3, […]), 13.4568.
With FQL (peptide), the IC50 of inhibition of DPP-IV activity in vitro in series [4] was 970 µM.
On to LLY (peptide), for which the IC50 of inhibition of DPP-IV activity in vitro in series [4] worked out at 830 µM.
As to PQNHA [PQNHA], the IC50 in series [1] came out at 24600 µM. Besides, the DPP-IV inhibitory activity in series [1] (replicate 1, […]) worked out at 27.665; in series [1] (replicate 2, […]), 17.6559; in series [1] (replicate 3, […]), 16.9893.
As for PSSQQ (peptide), the IC50 of inhibition of DPP-IV activity in vitro in series [4] turned out to be 730 µM.
Molecule PSSQQ [PSSQQ] returned an IC50 in series [1] of 730 µM. For the same molecule, the DPP-IV inhibitory activity in series [1] (replicate 1, […]) was determined as 8.036; in series [1] (replicate 2, […]), 8.558; in series [1] (replicate 3, […]) it was 22.2643. In series [3], this molecule had a Kd of 37000 µM.
In series [1], VFTPQ [VFTPQ] showed an IC50 of 18500 µM. Also, the DPP-IV inhibitory activity turned out to be 17.5527 in series [1] (replicate 1, […]); 15.1374 in series [1] (replicate 2, […]); 15.1911 in series [1] (replicate 3, […]).
Taken in the same sequence, the figures for WIAVK [WIAVK] were 600 µM, 55.8181, 53.6066 and 51.0205.
The molecule WLE (peptide) came in with an IC50 of inhibition of DPP-IV activity in vitro in series [4] of 2400 µM.
Same read-out and setting: the same measure for YNL (peptide): 140 µM; for YQL (peptide): 280 µM.
Turning to YTPHW [YTPHW], the DPP-IV inhibitory activity in series [1] (replicate 1, […]) was 18.6094; in series [1] (replicate 2, […]), 9.79; in series [1] (replicate 3, […]), 21.0526. Besides, the IC50 in series [1] (Table S3, read-out: IC50) was 7110 µM.

B1: PQNHA (peptide)
peptide: PQNHA
Take B1: the IC50 of inhibition of DPP-IV activity in vitro in series [4] was 24600 µM.

B2: FPQS (peptide)
peptide: FPQS
In the case of B2, the IC50 of inhibition of DPP-IV activity in vitro in series [4] came out at 350 µM.

B3: WDSY (peptide)
peptide: WDSY
With B3, the IC50 of inhibition of DPP-IV activity in vitro in series [4] came to 630 µM.

B4: VADW (peptide)
peptide: VADW
As for B4, in series [4], the IC50 of inhibition of DPP-IV activity in vitro worked out at 350 µM.

B5: YNLP (peptide)
peptide: YNLP
In the case of B5, in series [4], the IC50 of inhibition of DPP-IV activity in vitro was 510 µM.

B6: YTGD (peptide)
peptide: YTGD
B6 registered an IC50 of inhibition of DPP-IV activity in vitro in series [4] of 320 µM.

B7: YSYA (peptide)
peptide: YSYA
B7 registered an IC50 of inhibition of DPP-IV activity in vitro in series [4] of 410 µM.

B8: YQLM (peptide)
peptide: YQLM
B8: the IC50 of inhibition of DPP-IV activity in vitro in series [4] was determined as 650 µM.

B9: VFTPQ (peptide)
peptide: VFTPQ
On to B9, for which the IC50 of inhibition of DPP-IV activity in vitro in series [4] turned out to be 18500 µM.

B10: WNVN (peptide)
peptide: WNVN
Regarding B10, the IC50 of inhibition of DPP-IV activity in vitro in series [4] was 150 µM.

B11: FNVDSE (peptide)
peptide: FNVDSE
For B11, in series [4], the IC50 of inhibition of DPP-IV activity in vitro stood at 84000 µM.

B12: WIAVK (peptide)
peptide: WIAVK
With B12, the IC50 of inhibition of DPP-IV activity in vitro in series [4] amounted to 600 µM.

B13: LNAP (peptide)
peptide: LNAP
For the molecule B13, the IC50 of inhibition of DPP-IV activity in vitro in series [4] was determined as 590 µM.

B14: FDGEL (peptide)
peptide: FDGEL
In series [4], B14 displayed an IC50 of inhibition of DPP-IV activity in vitro of 45100 µM.

B15: FNPRG (peptide)
peptide: FNPRG
Turning to B15, in series [4], the IC50 of inhibition of DPP-IV activity in vitro is 40500 µM.

B16: YTPHW (peptide)
peptide: YTPHW
As to B16, in series [4], the IC50 of inhibition of DPP-IV activity in vitro was 7110 µM.

B17: VAMP (peptide)
peptide: VAMP
Regarding B17, in series [4], the IC50 of inhibition of DPP-IV activity in vitro is 1 µM.
